A short description of series [1]: in vivo. The conditions noted are these: mouse, po.
Description: Oral bioavailability in mouse
Series [2] in a line: Half life in mouse. The conditions noted are these: in vivo. Format: ADME, organism-based.
Series [3] has as its target Gamma-secretase.
Description: Inhibition of Gamma-secretase (unknown origin)

SMILES strings stand for the structures. pIC50: −log10 of the molar value.

Take `CCO[C@H]1CCN(Cc2c(OC)cc(C)c3[nH]ccc23)[C@H](c2ccc(C(=O)O)cc2)C1` [IPTACOPAN]: the bioavailability in series [1] worked out at 60%. The same molecule had a half-life in series [2] of 7 h.
The molecule `C[C@H](NC(=O)Cc1cc(F)cc(F)c1)C(=O)N[C@H](C(=O)OC(C)(C)C)c1ccccc1` had a pIC50 in series [3] of 7.70.

One may read the bioavailability as the share of a dose that reaches the circulation, judged against a reference dose that is usually intravenous. Higher therefore signals good availability. What is called half-life is the time in which the quantity being followed falls by half. Read a high half-life as slow decline. For orientation: pIC50 means the IC50 on a negative log10 scale, so that one unit is a factor of ten. Higher therefore signals a low IC50.

Values taken from ChEMBL document CHEMBL6071130, “A comprehensive review of small molecule drugs approved by the FDA in 2023: Advances and prospects” (Eur J Med Chem, 2024).
